Results reported in ChEMBL document CHEMBL1201862, “PubChem BioAssay data set” (2004).
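Grown in 96-well plates, cells were treated for 48 hours with each compound at five concentrations. Insufficient inhibition: endpoint recorded as highest concentration tested. GI50 marks 50% less growth.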 The source made the active and inactive calls. Cut-off read from the data, not from the text of the source: active = GI50 up to about 1.1 µM and inactive = higher.

Experiments:
Experiment in all cases: NCI-60 cell line screen, 48 h
[1] = test system: NCI-H522
[2] = test system: OVCAR-8
[3] = test system: CCRF-CEM
[4] = test system: SK-MEL-28
[5] = test system: DU-145
[6] = test system: NCI/ADR-RES
[7] = test system: K562
[8] = test system: CAKI-1
[9] = test system: IGROV-1
[10] = test system: A498
[11] = test system: A549
[12] = test system: MDA-MB-231
[13] = test system: MDA-N
[14] = test system: NCI-H226
[15] = test system: MDA-MB-435
[16] = test system: EKVX
[17] = test system: HOP-92
[18] = test system: LOX IMVI
[19] = test system: SW-620
[20] = test system: SN12C
[21] = test system: SK-MEL-5
[22] = test system: HCC 2998
[23] = test system: RXF 393
[24] = test system: SF-539
[25] = test system: MOLT-4
[26] = test system: HCT-116
[27] = test system: SNB-19
[28] = test system: HL-60
[29] = test system: KM12
[30] = test system: UACC-62
[31] = test system: T47D
[32] = test system: 786-0
[33] = test system: HT-29
[34] = test system: Hs-578T
[35] = test system: SF-268
[36] = test system: HCT-15
[37] = test system: ACHN
[38] = test system: TK-10
[39] = test system: Malme-3M
[40] = test system: M14
[41] = test system: NCI-H23
[42] = test system: BT-549
[43] = test system: MCF7
[44] = test system: RPMI-8226
[45] = test system: COLO 205
[46] = test system: U-251
[47] = test system: OVCAR-5
[48] = test system: SF-295
[49] = test system: OVCAR-3
[50] = test system: SK-MEL-2
[51] = test system: PC-3
[52] = test system: UO-31
[53] = test system: OVCAR-4
[54] = test system: HOP-62
[55] = test system: UACC-257

With C[C@H](NC(=O)C(C)(Cc1ccc(O)cn1)NC(=O)c1ccccc1)c1ccccc1 (stereo not given in full) the GI50 [1] was > 100 µM (inactive), the GI50 [2] was > 100 µM (inactive) and the GI50 [3] was > 100 µM (inactive). The GI50 [4] was > 100 µM (inactive), the GI50 [5] was > 100 µM (inactive) and the GI50 [6] was > 100 µM (inactive). For the same compound, the GI50 [7] was > 100 µM (inactive), the GI50 [8] was > 100 µM (inactive) and the GI50 [9] was > 100 µM (inactive). The GI50 [10] was > 100 µM (inactive), the GI50 [11] was > 100 µM (inactive) and the GI50 [12] was > 100 µM (inactive). For the same compound, the GI50 [13] was > 100 µM (inactive), the GI50 [14] was > 100 µM (inactive) and the GI50 [15] was > 100 µM (inactive). The GI50 [16] was > 100 µM (inactive), the GI50 [17] was > 100 µM (inactive) and the GI50 [18] was > 100 µM (inactive). The GI50 [19] was > 100 µM (inactive), the GI50 [20] was > 100 µM (inactive) and the GI50 [21] was > 100 µM (inactive). For the same compound, the GI50 [22] was > 100 µM (inactive), the GI50 [23] was > 100 µM (inactive) and the GI50 [24] was > 100 µM (inactive). For the same compound, the GI50 [25] was > 100 µM (inactive), the GI50 [26] was > 100 µM (inactive) and the GI50 [27] was > 100 µM (inactive). For the same compound, the GI50 [28] was > 100 µM (inactive), the GI50 [29] was > 100 µM (inactive) and the GI50 [30] was > 100 µM (inactive). For the same compound, the GI50 [31] was > 100 µM (inactive), the GI50 [32] was > 100 µM (inactive) and the GI50 [33] was > 100 µM (inactive). For the same compound, the GI50 [34] was > 100 µM (inactive), the GI50 [35] was > 100 µM (inactive) and the GI50 [36] was greater than 100 µM. The GI50 [37] was > 100 µM (inactive), the GI50 [38] was > 100 µM (inactive) and the GI50 [39] was > 100 µM (inactive). The GI50 [40] was > 100 µM (inactive), the GI50 [41] was > 100 µM (inactive) and the GI50 [42] was > 100 µM (inactive). For the same compound, the GI50 [43] was > 100 µM (inactive), the GI50 [44] was > 100 µM (inactive) and the GI50 [45] was > 100 µM (inactive). The GI50 [46] was > 100 µM (inactive), the GI50 [47] was > 100 µM (inactive) and the GI50 [48] was > 100 µM (inactive). For the same compound, the GI50 [49] was > 100 µM (inactive), the GI50 [50] was > 100 µM (inactive) and the GI50 [51] was > 100 µM (inactive). The GI50 [52] was > 100 µM (inactive), the GI50 [53] was > 100 µM (inactive) and the GI50 [54] was > 100 µM (inactive). For the same compound, the GI50 [55] was > 100 µM (inactive).
